From PubChem BioAssay (NCI)
Values joined by “and” are separate entries in the source; they are usually repeats but may differ in a detail not shown here. Equal entries are not always repeated.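 Five compound concentrations were applied to cells in 96-well plates for 48 hours; endpoints were derived by simple linear interpolation of the resulting dose-response curve. GI50 marks 50% less growth. TGI is the concentration that stops growth completely.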

What was measured:
Test in all cases: NCI-60 cell line screen, 48 h
A549 NSCLC = system: A549 NSCLC
COLO 205 colon = system: COLO 205 colon
K-562 leukemia = system: K-562 leukemia
HOP-92 NSCLC = system: HOP-92 NSCLC
HCC-2998 colon = system: HCC-2998 colon
RXF 393 renal = system: RXF 393 renal
SK-MEL-2 melanoma = system: SK-MEL-2 melanoma
HL-60(TB) leukemia = system: HL-60(TB) leukemia
HS 578T breast = system: HS 578T breast
LOX IMVI melanoma = system: LOX IMVI melanoma
NCI-H460 lung = system: NCI-H460 lung
SNB-75 CNS = system: SNB-75 CNS
SF-295 CNS = system: SF-295 CNS
KM12 colon = system: KM12 colon
SK-MEL-28 melanoma = system: SK-MEL-28 melanoma
HOP-62 NSCLC = system: HOP-62 NSCLC
DU-145 prostate = system: DU-145 prostate
SK-OV-3 ovarian = system: SK-OV-3 ovarian
OVCAR-4 ovarian = system: OVCAR-4 ovarian
HCT-116 colon = system: HCT-116 colon
TK-10 renal = system: TK-10 renal
MDA-MB-435 = system: MDA-MB-435
UACC-62 melanoma = system: UACC-62 melanoma
SN12C renal = system: SN12C renal
NCI-H522 lung = system: NCI-H522 lung
SF-268 CNS = system: SF-268 CNS
OVCAR-3 ovarian = system: OVCAR-3 ovarian
U251 CNS = system: U251 CNS
CCRF-CEM leukemia = system: CCRF-CEM leukemia
NCI/ADR-RES ovarian = system: NCI/ADR-RES ovarian
MOLT-4 leukemia = system: MOLT-4 leukemia
SW-620 colon = system: SW-620 colon
MALME-3M melanoma = system: MALME-3M melanoma
UO-31 renal = system: UO-31 renal
MCF7 breast = system: MCF7 breast
SF-539 CNS = system: SF-539 CNS
SNB-19 CNS = system: SNB-19 CNS
RPMI-8226 leukemia = system: RPMI-8226 leukemia
HCT-15 colon = system: HCT-15 colon
A498 renal = system: A498 renal
CAKI-1 renal = system: CAKI-1 renal
M14 melanoma = system: M14 melanoma
NCI-H23 lung = system: NCI-H23 lung
SK-MEL-5 melanoma = system: SK-MEL-5 melanoma
PC-3 prostate = system: PC-3 prostate
T-47D breast = system: T-47D breast
OVCAR-5 ovarian = system: OVCAR-5 ovarian
786-0 renal = system: 786-0 renal
NCI-H226 lung = system: NCI-H226 lung
BT-549 breast = system: BT-549 breast
HT29 colon = system: HT29 colon
IGROV1 ovarian = system: IGROV1 ovarian
UACC-257 melanoma = system: UACC-257 melanoma

Compound: C#CC(F)(F)[C@]1(O)CC[C@H]2[C@@H]3CCC4=CC(=O)CCC4=C3[C@@H](c3ccc(C4CC4)cc3)C[C@@]21C
- GI50 (A549 NSCLC): 400 nM and 470 nM
- TGI (A549 NSCLC): 3910 nM and 7220 nM
- GI50 (COLO 205 colon): 1790 nM and 1220 nM
- TGI (COLO 205 colon): 11200 nM and 3590 nM
- GI50 (K-562 leukemia): 815 nM and 2210 nM
- TGI (K-562 leukemia): 11700 nM and > 100000 nM
- GI50 (HOP-92 NSCLC): 16.7 nM and < 16.1 nM
- TGI (HOP-92 NSCLC): 37.4 nM and < 25.3 nM
- GI50 (HCC-2998 colon): 5600 nM and 3720 nM
- TGI (HCC-2998 colon): 29900 nM and > 65600 nM
- TGI (RXF 393 renal): 2920 nM and 7000 nM
- GI50 (SK-MEL-2 melanoma): 2650 nM and 2220 nM
- TGI (SK-MEL-2 melanoma): 7740 nM and 6010 nM
- GI50 (HL-60(TB) leukemia): < 10 nM
- TGI (HL-60(TB) leukemia): 21.6 nM and < 10 nM
- GI50 (HS 578T breast): 205 nM and 1320 nM
- TGI (HS 578T breast): 2630 nM and 7340 nM
- GI50 (LOX IMVI melanoma): < 10 nM
- TGI (LOX IMVI melanoma): < 10 nM
- GI50 (NCI-H460 lung): 2380 nM and 2280 nM
- TGI (NCI-H460 lung): 9900 nM and 9670 nM
- GI50 (SNB-75 CNS): 147 nM
- TGI (SNB-75 CNS): 437 nM
- GI50 (SF-295 CNS): 31.9 nM and < 10 nM
- TGI (SF-295 CNS): 82.1 nM and < 10 nM
- GI50 (KM12 colon): 21.4 nM and < 17.7 nM
- GI50 (SK-MEL-28 melanoma): 5330 nM and 2310 nM
- TGI (SK-MEL-28 melanoma): 17900 nM and 5960 nM
- GI50 (HOP-62 NSCLC): 367 nM and 201 nM
- TGI (HOP-62 NSCLC): 5440 nM and 1720 nM
- GI50 (DU-145 prostate): 814 nM and 2130 nM
- TGI (DU-145 prostate): 6550 nM and 15400 nM
- GI50 (SK-OV-3 ovarian): 162 nM and 69.5 nM
- TGI (SK-OV-3 ovarian): 312 nM and 215 nM
- GI50 (OVCAR-4 ovarian): 1010 nM
- TGI (OVCAR-4 ovarian): > 100000 nM
- GI50 (HCT-116 colon): 3190 nM and 2900 nM
- TGI (HCT-116 colon): 13200 nM and 19000 nM
- GI50 (TK-10 renal): 4550 nM and 2240 nM
- TGI (TK-10 renal): 20900 nM and 8330 nM
- GI50 (MDA-MB-435): 4590 nM and 2250 nM
- TGI (MDA-MB-435): 23900 nM and 10300 nM
- GI50 (UACC-62 melanoma): 762 nM and 1420 nM
- TGI (UACC-62 melanoma): 2360 nM and 4220 nM
- GI50 (SN12C renal): 933 nM and 2450 nM
- TGI (SN12C renal): 8690 nM and 10500 nM
- GI50 (NCI-H522 lung): < 10 nM
- TGI (NCI-H522 lung): 17.4 nM and < 10 nM
- GI50 (SF-268 CNS): 54.1 nM and 97.1 nM
- TGI (SF-268 CNS): 183 nM and 322 nM
- GI50 (OVCAR-3 ovarian): 15.9 nM and 24.5 nM
- TGI (OVCAR-3 ovarian): 32.6 nM and 169 nM
- GI50 (U251 CNS): 48 nM and 395 nM
- TGI (U251 CNS): 234 nM and 2200 nM
- GI50 (CCRF-CEM leukemia): 17 nM and < 10 nM
- TGI (CCRF-CEM leukemia): 43 nM and < 13.9 nM
- GI50 (NCI/ADR-RES ovarian): 83 nM and 164 nM
- TGI (NCI/ADR-RES ovarian): 2820 nM and 5550 nM
- GI50 (MOLT-4 leukemia): 1160 nM and 1620 nM
- TGI (MOLT-4 leukemia): 4000 nM and 5000 nM
- GI50 (SW-620 colon): 1250 nM and 2360 nM
- TGI (SW-620 colon): 7440 nM and 12400 nM
- GI50 (MALME-3M melanoma): 43.6 nM and < 15.1 nM
- TGI (MALME-3M melanoma): 94.6 nM and < 28 nM
- GI50 (UO-31 renal): < 10 nM
- TGI (UO-31 renal): < 10 nM
- GI50 (MCF7 breast): 1560 nM and 1160 nM
- TGI (MCF7 breast): > 100000 nM
- GI50 (SF-539 CNS): 20.7 nM and < 15.5 nM
- TGI (SF-539 CNS): 45.8 nM and 31.7 nM
- GI50 (SNB-19 CNS): 1440 nM and 3910 nM
- GI50 (RPMI-8226 leukemia): 139 nM and 125 nM
- TGI (RPMI-8226 leukemia): 1000 nM and 915 nM
- GI50 (HCT-15 colon): 1550 nM and 1810 nM
- TGI (HCT-15 colon): > 100000 nM
- GI50 (A498 renal): 495 nM and 593 nM
- TGI (A498 renal): 1930 nM and 1740 nM
- GI50 (CAKI-1 renal): 103 nM and < 17.1 nM
- TGI (CAKI-1 renal): 633 nM and 74.5 nM
- GI50 (M14 melanoma): 844 nM and 2780 nM
- TGI (M14 melanoma): 2920 nM and 18800 nM
- GI50 (NCI-H23 lung): 24.2 nM and < 15.1 nM
- TGI (NCI-H23 lung): 268 nM and < 41 nM
- GI50 (SK-MEL-5 melanoma): 4050 nM and 3050 nM
- TGI (SK-MEL-5 melanoma): 10700 nM and 8410 nM
- GI50 (PC-3 prostate): 44.1 nM and 414 nM
- TGI (PC-3 prostate): 313 nM and 2740 nM
- GI50 (T-47D breast): < 10 nM
- TGI (T-47D breast): 59000 nM and 8400 nM
- GI50 (OVCAR-5 ovarian): 271 nM and 1280 nM
- TGI (OVCAR-5 ovarian): 2270 nM and 5790 nM
- GI50 (786-0 renal): < 10 nM
- TGI (786-0 renal): < 10.6 nM
- GI50 (NCI-H226 lung): 7790 nM and 3150 nM
- TGI (NCI-H226 lung): 72900 nM and 11500 nM
- GI50 (BT-549 breast): 1160 nM and 1280 nM
- TGI (BT-549 breast): 2940 nM and 3570 nM
- GI50 (HT29 colon): 42.8 nM and < 20 nM
- TGI (HT29 colon): 171 nM and 184 nM
- GI50 (IGROV1 ovarian): < 11.4 nM
- TGI (IGROV1 ovarian): < 15.5 nM
- GI50 (UACC-257 melanoma): 7720 nM and 6450 nM
- TGI (UACC-257 melanoma): 71800 nM and > 100000 nM
